Source: patent US20230085307A1, “PYRIDAZINONE COMPOUND AND HERBICIDE” (NISSAN CHEMICAL CORPORATION, priority 2019, published 2023)

Key:
late watergrass = experiment: Test Example 2: herbicidal activity, application during weed generation under submerged conditions (Table 17, symbol A); format: in vivo, late watergrass (Echinochloa oryzicola); conditions: AAH 320 g/ha; application during weed generation, submerged conditions
How it was run: (§1)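 Alluvial soil in Wagner pots was flooded to 4 cm depth and sown with the three weeds together; pots were kept in a greenhouse at 25° C. to 30° C. At the one to two leaf stage, an emulsion formulation diluted in water to a set rate went onto the water surface; scored three weeks later.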

windgrass [1] = experiment: Test Example 5: herbicidal effect by foliage application, plastic box (Table 20, symbol L); format: in vivo, windgrass (Apera spica-venti); conditions: foliage application, 320 g/ha, evaluated three weeks after application
How it was run: (§2)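 Post-emergence foliar test in sterilized diluvial soil. Compound applied as water-diluted emulsion at a predetermined rate to 14-day-old plants; evaluation at three weeks.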

redroot pigweed [2] = experiment: Test Example 4: herbicidal effect by soil treatment (Table 19, symbol N); format: in vivo, redroot pigweed (Amaranthus retroflexus); conditions: 320 g/ha
How it was run: (§3)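 Scoring uses the grading scale of an earlier test, three weeks post-application. Treatment consists of spraying a diluted emulsion formulation across the surface of sterilized diluvial soil in which seeds are buried near 1.5 cm deep; boxes are kept in a greenhouse between 25° C. and 30° C.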

Chinese sprangletop = experiment: Test Example 3: herbicidal effect by foliage application, Wagner pot (Table 18, symbol D); format: in vivo, chinese sprangletop (Leptochloa chinensis); conditions: 320 g/ha
How it was run: (§4)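 Plants were sown in alluvial soil held under 0.1–0.5 cm standing water and grown 14 days in a greenhouse at 25–30 °C. An emulsifiable formulation, water-diluted to the set dose, was then sprayed onto the foliage, and effects were scored three weeks later using previously defined criteria.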

wild oat [3] = experiment: Test Example 4: herbicidal effect by soil treatment (Table 19, symbol I); format: in vivo, wild oat (Avena fatua); conditions: 320 g/ha
How it was run: as §3

blackgrass [4] = experiment: Test Example 5: herbicidal effect by foliage application, plastic box (Table 20, symbol J); format: in vivo, blackgrass (Alopecurus myosuroides); conditions: foliage application, 320 g/ha, evaluated three weeks after application
How it was run: as §2

chickweed [5] = experiment: Test Example 5: herbicidal effect by foliage application, plastic box (Table 20, symbol P); format: in vivo, common chickweed (Stellaria media); conditions: foliage application, 320 g/ha, evaluated three weeks after application
How it was run: as §2

persian speedwell [6] = experiment: Test Example 5: herbicidal effect by foliage application, plastic box (Table 20, symbol R); format: in vivo, Persian speedwell (Veronica persica); conditions: foliage application, 320 g/ha, evaluated three weeks after application
How it was run: as §2

southern crabgrass [7] = experiment: Test Example 4: herbicidal effect by soil treatment (Table 19, symbol F); format: in vivo, southern crabgrass (Digitaria ciliaris); conditions: 320 g/ha
How it was run: as §3

barnyard grass [8] = experiment: Test Example 3: herbicidal effect by foliage application, Wagner pot (Table 18, symbol H); format: in vivo, barnyard grass (Echinochloa crus-galli); conditions: 320 g/ha
How it was run: as §4

chickweed [9] = experiment: Test Example 4: herbicidal effect by soil treatment (Table 19, symbol P); format: in vivo, common chickweed (Stellaria media); conditions: 320 g/ha
How it was run: as §3

green foxtail [10] = experiment: Test Example 4: herbicidal effect by soil treatment (Table 19, symbol G); format: in vivo, green foxtail (Setaria viridis); conditions: 320 g/ha
How it was run: as §3

barnyard grass [11] = experiment: Test Example 5: herbicidal effect by foliage application, plastic box (Table 20, symbol H); format: in vivo, barnyard grass (Echinochloa crus-galli); conditions: foliage application, 320 g/ha, evaluated three weeks after application
How it was run: as §2

oval-leafed pondweed = experiment: Test Example 2: herbicidal activity, application during weed generation under submerged conditions (Table 17, symbol C); format: in vivo, oval-leafed pondweed (Monochoria vaginalis); conditions: AAH 320 g/ha; application during weed generation, submerged conditions
How it was run: as §1

blackgrass [12] = experiment: Test Example 4: herbicidal effect by soil treatment (Table 19, symbol J); format: in vivo, blackgrass (Alopecurus myosuroides); conditions: 320 g/ha
How it was run: as §3

windgrass [13] = experiment: Test Example 4: herbicidal effect by soil treatment (Table 19, symbol L); format: in vivo, windgrass (Apera spica-venti); conditions: 320 g/ha
How it was run: as §3

Italian ryegrass [14] = experiment: Test Example 4: herbicidal effect by soil treatment (Table 19, symbol K); format: in vivo, Italian ryegrass (Lolium multiflorum); conditions: 320 g/ha
How it was run: as §3

persian speedwell [15] = experiment: Test Example 4: herbicidal effect by soil treatment (Table 19, symbol R); format: in vivo, Persian speedwell (Veronica persica); conditions: 320 g/ha
How it was run: as §3

southern crabgrass [16] = experiment: Test Example 5: herbicidal effect by foliage application, plastic box (Table 20, symbol F); format: in vivo, southern crabgrass (Digitaria ciliaris); conditions: foliage application, 320 g/ha, evaluated three weeks after application
How it was run: as §2

velvetleaf [17] = experiment: Test Example 4: herbicidal effect by soil treatment (Table 19, symbol M); format: in vivo, velvetleaf (Abutilon theophrasti); conditions: 320 g/ha
How it was run: as §3

green foxtail [18] = experiment: Test Example 5: herbicidal effect by foliage application, plastic box (Table 20, symbol G); format: in vivo, green foxtail (Setaria viridis); conditions: foliage application, 320 g/ha, evaluated three weeks after application
How it was run: as §2

Japanese bulrush = experiment: Test Example 2: herbicidal activity, application during weed generation under submerged conditions (Table 17, symbol B); format: in vivo, Japanese bulrush (Schoenoplectus juncoides); conditions: AAH 320 g/ha; application during weed generation, submerged conditions
How it was run: as §1

barnyard grass [19] = experiment: Test Example 4: herbicidal effect by soil treatment (Table 19, symbol H); format: in vivo, barnyard grass (Echinochloa crus-galli); conditions: 320 g/ha
How it was run: as §3

Italian ryegrass [20] = experiment: Test Example 5: herbicidal effect by foliage application, plastic box (Table 20, symbol K); format: in vivo, Italian ryegrass (Lolium multiflorum); conditions: foliage application, 320 g/ha, evaluated three weeks after application
How it was run: as §2

wild oat [21] = experiment: Test Example 5: herbicidal effect by foliage application, plastic box (Table 20, symbol I); format: in vivo, wild oat (Avena fatua); conditions: foliage application, 320 g/ha, evaluated three weeks after application
How it was run: as §2

lambsquarters [22] = experiment: Test Example 4: herbicidal effect by soil treatment (Table 19, symbol O); format: in vivo, lambsquarters (Chenopodium album); conditions: 320 g/ha
How it was run: as §3

redroot pigweed [23] = experiment: Test Example 5: herbicidal effect by foliage application, plastic box (Table 20, symbol N); format: in vivo, redroot pigweed (Amaranthus retroflexus); conditions: foliage application, 320 g/ha, evaluated three weeks after application
How it was run: as §2

lambsquarters [24] = experiment: Test Example 5: herbicidal effect by foliage application, plastic box (Table 20, symbol O); format: in vivo, lambsquarters (Chenopodium album); conditions: foliage application, 320 g/ha, evaluated three weeks after application
How it was run: as §2

velvetleaf [25] = experiment: Test Example 5: herbicidal effect by foliage application, plastic box (Table 20, symbol M); format: in vivo, velvetleaf (Abutilon theophrasti); conditions: foliage application, 320 g/ha, evaluated three weeks after application
How it was run: as §2

rice flat sedge = experiment: Test Example 3: herbicidal effect by foliage application, Wagner pot (Table 18, symbol E); format: in vivo, rice flat sedge (Cyperus iria); conditions: 320 g/ha
How it was run: as §4

Structure (SMILES): COCCOCOc1c(C)nn(C)c(=O)c1-c1c(-c2ccc(OCC#N)cc2)sc2ccc(F)cc12 [2-067]
- herbicidal effect rating, A: late watergrass (late watergrass): 2 (Herbicidal rate of 20% or more and less than 40%)
- herbicidal effect on L: windgrass (windgrass [1]): 0 (Herbicidal rate of 5% or less (almost no effect))
- herbicidal effect rating, N: redroot pigweed (redroot pigweed [2]): 3 (Herbicidal rate of 40% or more and less than 70%)
- herbicidal effect on D (Chinese sprangletop), rating 0-5 (Chinese sprangletop): 5 (Herbicidal rate of 90% or more (almost completely withered))
- herbicidal effect rating, I: wild oat (wild oat [3]): 0 (Herbicidal rate of 5% or less (almost no effect))
- herbicidal effect on J: blackgrass (blackgrass [4]): 0 (Herbicidal rate of 5% or less (almost no effect))
- herbicidal effect on P: chickweed (chickweed [5]): 4 (Herbicidal rate of 70% or more and less than 90%)
- herbicidal effect on R: persian speedwell (persian speedwell [6]): 5 (Herbicidal rate of 90% or more (almost completely withered))
- herbicidal effect rating, F: southern crabgrass (southern crabgrass [7]): 0 (Herbicidal rate of 5% or less (almost no effect))
- herbicidal effect on H (barnyard grass), rating 0-5 (barnyard grass [8]): 4 (Herbicidal rate of 70% or more and less than 90%)
- herbicidal effect rating, P: chickweed (chickweed [9]): 0 (Herbicidal rate of 5% or less (almost no effect))
- herbicidal effect rating, G: green foxtail (green foxtail [10]): 0 (Herbicidal rate of 5% or less (almost no effect))
- herbicidal effect on H: barnyard grass (barnyard grass [11]): 1 (Herbicidal rate of 5% or more and less than 20%)
- herbicidal effect rating, C: oval-leafed pondweed (oval-leafed pondweed): 0 (Herbicidal rate of 5% or less (almost no effect))
- herbicidal effect rating, J: blackgrass (blackgrass [12]): 0 (Herbicidal rate of 5% or less (almost no effect))
- herbicidal effect rating, L: windgrass (windgrass [13]): 0 (Herbicidal rate of 5% or less (almost no effect))
- herbicidal effect rating, K: Italian ryegrass (Italian ryegrass [14]): 0 (Herbicidal rate of 5% or less (almost no effect))
- herbicidal effect rating, R: persian speedwell (persian speedwell [15]): 3 (Herbicidal rate of 40% or more and less than 70%)
- herbicidal effect on F: southern crabgrass (southern crabgrass [16]): 3 (Herbicidal rate of 40% or more and less than 70%)
- herbicidal effect rating, M: velvetleaf (velvetleaf [17]): 0 (Herbicidal rate of 5% or less (almost no effect))
- herbicidal effect on G: green foxtail (green foxtail [18]): 1 (Herbicidal rate of 5% or more and less than 20%)
- herbicidal effect rating, B: Japanese bulrush (Japanese bulrush): 0 (Herbicidal rate of 5% or less (almost no effect))
- herbicidal effect rating, H: barnyard grass (barnyard grass [19]): 0 (Herbicidal rate of 5% or less (almost no effect))
- herbicidal effect on K: Italian ryegrass (Italian ryegrass [20]): 0 (Herbicidal rate of 5% or less (almost no effect))
- herbicidal effect on I: wild oat (wild oat [21]): 0 (Herbicidal rate of 5% or less (almost no effect))
- herbicidal effect rating, O: lambsquarters (lambsquarters [22]): 3 (Herbicidal rate of 40% or more and less than 70%)
- herbicidal effect on N: redroot pigweed (redroot pigweed [23]): 5 (Herbicidal rate of 90% or more (almost completely withered))
- herbicidal effect on O: lambsquarters (lambsquarters [24]): 4 (Herbicidal rate of 70% or more and less than 90%)
- herbicidal effect on M: velvetleaf (velvetleaf [25]): 2 (Herbicidal rate of 20% or more and less than 40%)
- herbicidal effect on E (rice flat sedge), rating 0-5 (rice flat sedge): 3 (Herbicidal rate of 40% or more and less than 70%)
